How the values were obtained:
[1] = tested on: 3T3L-1 mouse pre-adipocyte cells; assay: Brown adipose marker expression in differentiating 3T3L-1 preadipocytes; assay type: cell-based
Experimental: A. 3T3L-1 mouse preadipocyte cells in 6 well plates were allowed to reach full confluence. Two days following confluence (designated as day 0), the growth medium was replaced with differentiation medium (DM). After two days of incubation in DM, this medium was replaced with insulin medium (Ins) and the cells were incubated in Ins for 2 days and then the insulin medium was replaced with growth medium (GM) and the cells were cultured for a total of 10 days (starting from day 0). The cells were treated with vehicle (0.1% DMSO) or ULMA (10 nM in 0.1% DMSO) on day 0 and the total treatment duration was 10 days. In all cases, medium was replaced with fresh corresponding medium every day containing vehicle (0.1% DMSO) or 10 nM ULMA (in DMSO; final DMSO concentration in all wells 0.1% vol/vol). After a total of 10 days from day 0, cells were washed in cold PBS and RNA was extracted using trizol reagent using standard procedure following which cDNA synthesis was done and UCP-1, UCP-2, PGC-1α and PRDM16 expression were determined using QRT-PCR, normalized with Beta-actin mRNA and plotted as fold induction over vehicle treated control. Data is mean±SEM of three independent experiments performed in triplicates. **p<0.01 as determined by two tailed unpaired student's t-test.
C. Cells from identical set of experiments as described in FIGS. 5A and 5B or human SVFs prepared by collagenase digestions were analyzed by western blot analysis for determination of UCP-1, UCP-2 and PGC-1α protein level. Beta-actin was used as a loading control. Data is representative of three independent experiments.
Adiponectin has previously been described to enhance mitochondrial function in adipose tissues and induces its thermogenic potential and therefore causes a conversion towards brown adipose phenotype characterized by an increase in UCPs, in particular UCP-1 (I. B. Bauche, S. A. E. Mkadem, A-M. Pottier, M. Senou, M-C. Many, R. Rersohazy, L. Penicaud, N. Maeda; T. Funahashi, S. M. Brichard. Endocrinology 148(4):1539-1549. 2007). Therefore, the ability of ULMA to induce UCP-1 and 2 in different stages of adipocyte differentiation was checked. We also checked other brown adipose markers such as PGC-1α and PR domain containing 16 (PRDM16). 3T3L-1 mouse pre-adipocyte cells (ATCC, CL-173) maintained in growth medium (DMEM with 4.5 mg/ml glucose, 4.0 mM glutamine, 1 mM sodium pyruvate, 10% FBS and 1× antibiotic-antimycotic solution (all reagents from invitrogen)) were plated in 6 well plates and allowed to reach full confluence. […] After two days of incubation in differentiation medium, this medium was replaced with insulin medium (DMEM, 10% FBS, plus 1.5 μg/ml insulin) and the cells were incubated in insulin medium for 2 days and then the insulin medium was replaced with growth medium and the cells were then cultured for total of 10 days (from day 0). For ULMA treatment, the cells were treated on day 0 (the day on which differentiation medium was added), and the treatment was continued for a total of 10 days. In all cases, medium was replaced with fresh medium containing vehicle (0.1% DMSO) or 10 nM ULMA every day. After 10 days from day 0, cells were washed in cold PBS and RNA was extracted using trizol reagent using standard procedure following which cDNA synthesis was done and transcript expression was determined using QRT-PCR as described above.
For western blot-based determination of UCP-1, UCP-2 and PGC-1α protein level, cells from an identical set of experiment were lysed and western blotted with UCP-1, UCP-2 (Abcam), PGC-1α(Calbiochem), or beta-actin (cell signaling technology; used as a loading control) as described above.

AdipoR2 = target: T1, AdipoR2 (Homo sapiens, UniProt Q86V24); assay: Radio-ligand saturation binding assay with 125I-ULMA, CHO cells transfected with AdipoR2
T1 construct: expressed in transfected cells; host or cells: Chinese Hamster Ovary cells (ECACC 85050302), transient transfection with Lipofectamine LTX
T1 sequence (Q86V24 1-386): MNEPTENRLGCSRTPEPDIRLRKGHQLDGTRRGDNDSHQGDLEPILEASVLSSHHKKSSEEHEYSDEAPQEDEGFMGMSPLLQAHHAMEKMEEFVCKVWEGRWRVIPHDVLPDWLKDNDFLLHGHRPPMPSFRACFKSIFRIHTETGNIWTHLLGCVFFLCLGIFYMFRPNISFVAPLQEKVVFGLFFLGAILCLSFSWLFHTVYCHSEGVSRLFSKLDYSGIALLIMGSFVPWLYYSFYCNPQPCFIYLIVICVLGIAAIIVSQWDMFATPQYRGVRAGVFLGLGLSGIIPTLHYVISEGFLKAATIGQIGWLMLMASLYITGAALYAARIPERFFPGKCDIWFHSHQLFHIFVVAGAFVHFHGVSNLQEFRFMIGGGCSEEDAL
Experimental: D. CHO cells transfected with empty vector or AdipoR1 or R2 expression vectors were incubated with various concentrations of ^125I-ULMA for 2 h at 4° C. Following washes, cells were lysed and count per minute was analyzed in a gamma counter. 200 fold molar excess of unlabeled ULMA was used for each concentration of radiolabeled ULMA for determining nonspecific activity. Count per minutes were normalized with total cellular protein content followed by further normalization with non-specific activity and plotted. Data is mean±SEM from three experiments performed in triplicates.
Further validation of AdipoR-ULMA interaction and its quantitation was done using a radio-ligand saturation binding assay using ^125I-ULMA. ULMA was first radiolabeled using chloramines-T method. 10 μl of ^125I (20 MBq; BARC, Mumbai, India) was added to 100 μg GTDF in 5% acetic acid/methanol, then chloramine-T (Sigma, 4 μg in MilliQ H2O) was added, and the mixture was allowed to react at room temperature (24° C.) for 5 min. […] was used for protein estimation using standard Bradford assay and rest of the lysate was used for measuring radioactivity in a gamma-counter (Cole Palmer). The count per minute was normalized with protein concentration and was further normalized with non specific binding, which was determined for every concentration of ^125I-ULMA, using 200 fold molar excess of unlabeled ULMA.

[2] = 10 nM, 10 days of differentiation
[3] = differentiated in presence of ULMA, 10 days

`O=C1c2c(cc(O)c([C@@H]3O[C@H](CO)[C@@H](O)[C@H](O)[C@H]3O)c2O)O[C@@H](c2ccc(O)c(O)c2)[C@@H]1O` [ULMA, (2S,3S)-(+)-3′,4′,5,7-tetrahydroxydihydroflavonol-6-C-β-D-glucopyranoside] was tested, and the “PGC-1α mRNA level” value [1, 2] was “significant increase”, the “PRDM16 mRNA level” value [1, 2] was “significant increase” and the “UCP-1 mRNA level” value [1, 2] was “significant increase”. The “UCP-2 mRNA level” value [1, 2] was “significant increase”, the PGC-1α protein level [1, 3] was “elevated” and the UCPs protein level [1, 3] was “elevated”. For the same compound, the “maximum binding (BMAX)” value (AdipoR2) was 3950 fmol/mg of protein and the Kd (AdipoR2; 2 hours, ice cold, read-out: dissociation constant (Kd)) was 326 nM.

From US20160193240A1, “Ulmoside-A: Useful For Prevention Or Cure Of Metabolic Diseases” (COUNCIL OF SCIENTIFIC & INDUSTRIAL RESEARCH, priority 2013, published 2016)
